In patent US12024506B2, “Compounds” (Oxford University Innovation Limited, priority 2018, dated 2024):

Biological target: T1, GST-human KRas166 (G12V) GPPNHP (Homo sapiens, UniProt P01116, G12V)
T1 construct: made in house; host or cells: E. coli C41(DE3)
Test: KRas small-molecule screening by SPR (Biacore T200)
Type: binding
Conditions: compound 100 uM, 5% DMSO buffer; immobilised GST-KRas166 (G12V) GPPNHP
Description: For SPR assays pGEX-KRAS(G12V) plasmid was transformed into E. coli C41(DE3). Bacterial cells were cultured at 37° C. to an OD600 of 0.6 and induced with IPTG (final 0.1 mM) at 18° C. over night. The GST fusion proteins were extracted from bacteria pellets after cell disruption in 140 mM NaCl, 2.7 mM KCl, 10 mM NaH2PO4, 1.8 mM KH2PO4, 1 mM EDTA, 2 mM MgCl2 pH 7.4 and purified by glutathione-sepharose column chromatography (GE Healthcare), eluting with 50 mM Tris-HCl pH8.0, 10 mM reduced glutathione, 1 mM DTT, 2 mM MgCl2. The eluted proteins were dialysed against 50 mM Tris-HCl pH8.0, 1 mM DTT, 2 mM MgCl2 and concentrated to 10 mg/ml using a Biomax-30 ULTRAFREE-15 centrifugal filter device (Millipore). Purified KRAS protein was loaded with GPPNHP as described elsewhere (Pacold et al., 2000). Loaded protein was then purified by gel filtration on a HiLoad Superdex-75 HR column (GE Healthcare) in 1×PBS pH7.4, 5 mM MgCl2 and concentrated for storage.
Protocol for KRas Small-Molecule Screening and Affinity Measurements by SPR
To a previously immobilized CM5 chip (GE Healthcare BR-1005-30) with anti GST antibody via amine coupling method, GST in channel 1 and GST-human KRas166 (G12V) GPPNHP in channel 2 were immobilised. GST was immobilised between 2,000 and 5,000 Response units. KRAS166 (G12V) was immobilized between 10,000 to 15,000 Response Units.
In a 96 well plate, compounds were diluted in […], 5 mM MgCl2 and 5% DMSO Buffer to a final concentration of 100 uM. DCAl was used as positive control. Experiment also included a solvent correction curve for 5% DMSO. Screening and evaluation of the protein immobilization and the compounds screening was done accordingly to the BIACORE T200 control and evaluation software.
Calculations for how many response units are required for a 1:1 ratio of compound/protein interaction are shown below. • Protein immobilisation: 10,000 RU; average fragment 300 Da in size. • Rmax=(MWA/MWL)×RL×SM • MWA is the molecular weight of the analyte in Da • MWL is the molecular weight of the ligand in Da • RL is the immobilization level in RU • SM is the molar stoichiometry (assume 1:1) • Rmax=300/47,500×10,000×1 • Rmax=63 RU. Cell Viability Assay protocols Assay 1

SMILES | SPR Response Units [Response Units]
CN1CCN(Cc2ccc(C(=O)NCC3COc4cccc(-c5ccc(OCCN6CCOCC6)cn5)c4O3)o2)CC1 (centres unmarked) [Example 107, 5-(4-methyl-piperazin-1-ylmethyl)-furan-2-carboxylic acid {8-[5-(2-morpholin-4-yl-ethoxy)-pyridin-2-yl]-2,3-dihydro-benzo[1,4]dioxin-2-ylmethyl}-amide] | 9
OCC1COc2cccc(-c3ccc(OCCN4CCOCC4)cn3)c2O1 (centres unmarked) [Example 110, {8-[5-(2-Morpholin-4-yl-ethoxy)-pyridin-2-yl]-2,3-dihydro-benzo[1,4]dioxin-2-yl}-methanol] | 4.6
O=C(NCC1COc2cccc(-c3ccc(OCCN4CCOCC4)cn3)c2O1)C1CCOCC1 (centres unmarked) [Example 111, Tetrahydro-pyran-4-carboxylic acid {8-[5-(2-morpholin-4-yl-ethoxy)-pyridin-2-yl]-2,3-dihydro-benzo[1,4]dioxin-2-ylnethyl}-amide] | 29
COc1nc(-c2cccc3c2OCCO3)ccc1NC(=O)CC1CCN(C)CC1 [Example 113, N-[6-(2,3-Dihydro-benzo[1,4]dioxin-5-yl)-2-methoxy-pyridin-3-yl]-2-(1-methyl-piperidin-4-yl)-acetamide] | 30
COc1cc(N)cc(-c2cccc3c2O[C@H](CNC(=O)c2ccc(CN4CCN(C)CC4)o2)CO3)n1 [Example 114, 5-(4-Methyl-piperazin-1-ylmethyl)-furan-2-carboxylic acid [(R)-8-(4-amino-6-methoxy-pyridin-2-yl)-2,3-dihydro-benzo[1,4]dioxin-2-ylmethyl]-amide] | 23
COc1nc(Nc2cccc3c2OC(CNC(=O)c2ccc(CN4CCN(C)CC4)o2)CO3)ccc1NC(=O)[C@H]1CCCN1 (stereo partly drawn) [Example 131, (R)-Pyrrolidine-2-carboxylic acid{2-methoxy-6-[3-({[5-(4-methyl-piperazin-1-ylmethyl)-furan-2-carbonyl]-amino}-methyl)-2,3-dihydro-benzo[1,4]dioxin-5-ylamino]-pyridin-3-yl}-amide] | 40
COc1cc(NC(=O)[C@@H]2CC[C@H](N)C2)cc(-c2cccc3c2OCCO3)n1 [Example 133, (1R,3S)-3-Amino-cyclopentanecarboxylic acid[2-(2,3-dihydro-benzo[1,4]dioxin-5-yl)-6-methoxy-pyridin-4-yl]-amide] | 96
COc1cc(NC(=O)N[C@@H]2CC[C@H](N)C2)cc(-c2cccc3c2OC(CNC(=O)C2CCOCC2)CO3)n1 (some centres unmarked) [Example 135] | 57
COc1cc(NC(=O)N[C@@H]2CC[C@H](N)C2)cc(-c2cccc3c2OCCO3)n1 [Example 136, 1-((1R,3S)-3-Amino-cyclopentyl)-3-[2-(2,3-dihydro-benzo[1,4]dioxin-5-yl)-6-methoxy-pyridin-4-yl]-urea] | 75
CN1CCN(Cc2ccc(C(=O)NCC3COc4cccc(-c5cn(C)cn5)c4O3)o2)CC1 (centres unmarked) [Example 137, 5-(4-Methyl-piperazin-1-ylmethyl)-furan-2-carboxylic acid [8-(1-methyl-1H-imidazol-4-yl)-2,3-dihydro-benzo[1,4]dioxin-2-ylmethyl]-amide] | 50
CN(C)Cc1cccc(Nc2ccnc(-c3cccc4c3OC(CNC(=O)C3CCOCC3)CO4)c2)c1 (centres unmarked) [Example 140, tetrahydro-pyran-4-carboxylic acid {8-[4-(3-dimethylaminomethyl-phenylamino)-pyridin-2-yl]-2,3-dihydro-benzo[1,4]dioxin-2-ylmethyl}-amide] | 32
COc1nc(-c2cccc3c2OC(CNC(=O)C2CCOCC2)CO3)ccc1NC(=O)N[C@H]1CC[C@@H](N)C1 (stereo partly drawn) [Example 141, tetrahydro-pyran-4-carboxylic acid (8-{5-[3-((1S,3R)-3-amino-cyclopentyl)-ureido]-6-methoxy-pyridin-2-yl}-2,3-dihydro-benzo[1,4]dioxin-2-ylmethyl)-amide] | 80
N[C@H]1CC[C@@H](NC(=O)Nc2ccnc(-c3cccc4c3OC(CNC(=O)C3CCOCC3)CO4)c2)C1 (stereo partly drawn) [Example 142, tetrahydro-pyran-4-carboxylic acid (8-{4-[3-((1R,3S)-3-amino-cyclopentyl)-ureido]-pyridin-2-yl}-2,3-dihydro-benzo[1,4]dioxin-2-ylmethyl)-amide] | 26
COc1nc(-c2cccc3c2OCCO3)ccc1Nc1ccccc1C(=O)NCC1CCN(C(=O)OC(C)(C)C)CC1 [Example 152, 4-({2-[6-(2,3-dihydro-benzo[1,4]dioxin-5-yl)-2-methoxy-pyridin-3-ylamino]-benzoylamino}-methyl)-piperidine-1-carboxylic acid tert-butyl ester] | 36
c1cc2c(c(-c3ccc(Nc4ccc(CNCC5COCCN5)cc4)nn3)c1)OCCO2 (centres unmarked) [Example 154, [6-(2,3-Dihydro-benzo[1,4]dioxin-5-yl)-pyridazin-3-yl]-(4-{[(morpholin-3-ylmethyl)-amino]-methyl}-phenyl)-amine] | 59
CN(C)Cc1cccc(C(=O)N2CCN(c3cccc4c3OCCO4)CC2)c1 [Example 156, [4-(2,3-Dihydro-benzo[1,4]dioxin-5-yl)-piperazin-1-yl]-(3-dimethylaminomethyl-phenyl)-methanone] | 5
COc1nc(-c2cccc3c2OCCO3)ccc1Nc1ccc(C(=O)NCc2cc[nH]c(=O)c2)cc1 [Example 161] | 16
COc1nc(-c2cccc3c2OCCO3)ccc1Nc1cccc(C(=O)NCc2cccc(F)n2)c1 [Example 168, 3-[6-(2,3-Dihydro-benzo[1,4]dioxin-5-yl)-2-methoxy-pyridin-3-ylamino]-N-(6-fluoro-pyridin-2-ylmethyl)-benzamide] | 23
CC(C)(C)OC(=O)NCc1ccc(C(=O)N2CCN(c3cccc4c3OCCO4)CC2)cc1 [Example 169, {4-[4-(2,3-Dihydro-benzo[1,4]dioxin-5-yl)-piperazine-1-carbonyl]-benzyl}-carbamic acid tert-butyl Ester] | 25
COc1nc(-c2cccc3c2OCCO3)ccc1Nc1ccc(C(=O)NCc2cccc(C)n2)cc1 [Example 174, 4-[6-(2,3-Dihydro-benzo[1,4]dioxin-5-yl)-2-methoxy-pyridin-3-ylamino]-N-(6-methyl-pyridin-2-ylmethyl)-benzamide] | 43
